For the assay, the target named is T1, PD-1/PD-L1 (Homo sapiens, UniProt Q9NZQ7).
T1 construct: purchased Cisbio 63ADK000CPDEC
T1 sequence (Q9NZQ7 19-238 limits assumed): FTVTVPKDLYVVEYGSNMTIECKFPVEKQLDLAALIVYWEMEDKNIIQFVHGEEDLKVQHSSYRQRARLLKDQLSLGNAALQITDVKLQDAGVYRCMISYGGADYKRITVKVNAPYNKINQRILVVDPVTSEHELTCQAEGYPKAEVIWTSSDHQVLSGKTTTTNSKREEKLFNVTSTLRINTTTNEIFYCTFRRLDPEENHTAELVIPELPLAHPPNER
Briefly: PD-1/PD-L1 homogeneous time-resolved fluorescence (HTRF) binding assay. Conditions: 665 nm/620 nm ratio. An excerpt: Test Example 1: Detect the Inhibitory Effect of the Compound to the Binding of PD-1/PD-L1 Protein
The PD-1/PD-L1 homogeneous time-resolved fluorescence method is used to detect the binding ability of the compound with PD-L1.
PD-1/PD-L1 binding assay kit (Cisbio, Cat #63ADK000CPDEC) was chosen, which contains two proteins Tag 1-PD-L1 and Tag 2-PD-1, and two antibodies Anti-Tag1-Eu^3+ and Anti-Tag2-XL 665. The principle of detection was: Anti-tag1-Eu^3+ was used as the donor of HTRF, and Anti-Tag2-XL 665 was used as the acceptor of HTRF. When Tag 1-PD-L1 interacts with Tag 2-PD-1, the added HTRF donor and the acceptor are close to each other. After the donor has received the excitation energy, part of the energy was transferred to the acceptor, thus generating 665 nm emission light. […] The inhibitory effect of the compound can be determined by comparing the ratio of 665 nm/620 nm. Tag 1-PD-L1 was diluted with Diluent buffer (cat #62DLBDDF) to a working concentration of 10 nM, Tag 2-PD-1 was diluted with Diluent buffer to a working concentration of 500 nM, Anti-Tag1-Eu^3+ was diluted with detection buffer (cat #62DB1FDG) at a ratio of 1:100, Anti-Tag2-XL 665 was diluted with detection buffer at a ratio of 1:20, and the compound to be detected was diluted with diluent buffer to a final concentration of 2×. Compound solution (2 μL) was added to each well of a 384-well plate, then Tag 1-PD-L1 (4 μL) and Tag 2-PD-1 (4 μL) were added successively. The mixture was incubated at room temperature for 15 minutes. Then Anti-Tag1-Eu^3+ (5 μL) and Anti-Tag2-XL 665 (5 μL) were added, and the mixture was incubated overnight at room temperature. BioTek Synergy™ Neo2 multifunctional microplate reader was used to detect so as to provide the 665 nm/620 nm ratio. PrismGraphd 5.02 was used to fit the IC50 curve.
On to `COc1nc(-c2cccc(-c3cccc(Nc4nccc5sc(CNCC(=O)O)nc45)c3Cl)c2Cl)ccc1CN1CCC2(CNC(=O)C2)C1` (stereo not drawn) [Compound 25], for which the IC50 was < 0.1 µM.
The result for `O[C@H]1CCN(Cc2nc3c(Nc4cccc(-c5ccccc5)c4Cl)nccc3s2)C1` [Compound 7, (S)-1-((4-((2-Chloro-[1,1′-biphenyl]-3-yl)amino)thiazolo[4,5-c]pyridin-2-yl)methyl)pyrrolidin-3-ol] reads 0.1 to 1 µM; that for `O=C(O)CNCc1nc2c(Nc3cccc(-c4cccc(-c5ccc(CNC[C@@H]6CCC(=O)N6)c(O)n5)c4Cl)c3Cl)nccc2n1CCO` [Compound 23], < 0.1 µM; that for `Cc1c(OCCCN2CCC(O)C2)cccc1-c1cccc(Nc2nccc3sc(CNCC(=O)O)nc23)c1Cl` (stereo not drawn) [Compound 16, ((4-((2-chloro-3′-(3-(3-hydroxypyrrolidin-1-yl)propoxy)-2′-methyl-[1,1′-biphenyl]-3-yl)amino)thiazolo[4,5-c]pyridin-2-yl)methyl)glycine], < 0.1 µM.
On to `COc1nc(-c2cccc(-c3cccc(Nc4nccc5sc(CNCC(=O)O)nc45)c3Cl)c2Cl)cc(C)c1CNC[C@@H]1CCC(=O)N1` [Compound 27], for which the IC50 was < 0.1 µM.
Turning to `COc1nc(-c2cccc(-c3cccc(Nc4nccc5sc(CN6C[C@@H](O)C[C@H]6C(=O)O)nc45)c3Cl)c2Cl)cc(C)c1CNC[C@@H]1CCC(=O)N1` [Compound 48], the IC50 is < 0.1 µM.
`OCCNCc1nc2c(Nc3cccc(-c4cccc(OCCCCN5CCC(O)C5)c4)c3Cl)nccc2s1` (stereo not drawn) [Compound 12, 1-(4-((2′-chloro-3′-((2-(((2-hydroxyethyl)amino)methyl)thiazolo[4,5-c]pyridin-4-yl)amino)-[1,1′-biphenyl]-3-yl)oxo)butyl)pyrrolidin-3-ol]: the IC50 is < 0.1 µM.
With `COc1nc(-c2cccc(-c3cccc(Nc4nccc5sc(CN6CCC(CC(=O)O)CC6)nc45)c3Cl)c2Cl)cc(C)c1CNC[C@@H]1CCC(=O)N1` [Compound 53], the IC50 is < 0.1 µM.
As for `COc1nc(-c2cccc(-c3cccc(Nc4nccc5sc(CNCC(=O)O)nc45)c3Cl)c2Cl)ccc1CNC[C@@H]1CCC(=O)N1` [Compound 18, (S)-((4-((2,2′-dichloro-3′-(6-methoxy-5-((((5-carbonylpyrrolidin-2-yl)methyl)amino)methyl)pyridin-2-yl)-[1,1′-biphenyl]-3-yl)amino)thiazolo[4,5-c]pyridin-2-yl)methyl)glycine], the IC50 was < 0.1 µM.

For the origin of these results see patent US20210347785A1, “PREPARATION AND APPLICATION OF AROMATIC COMPOUND HAVING IMMUNOREGULATORY FUNCTION” (SHANGHAI ENNOVABIO PHARMACEUTICALS CO., LTD., priority 2018, published 2021).
